For series [1], the target named is Nav1.2 (Homo sapiens, UniProt Q99250). As to the kind of experiment: cell-based.
Series [2] addresses Nav1.7 (Homo sapiens, UniProt Q15858, W1161R). In words: cell-based.
In series [3] the test system is mouse model of CFA-induced inflammatory pain. To be noted: in vivo.
Series [4] has as its system mice. To be noted: mouse, in vivo.
The test system of series [5] is mouse spared nerve injury model of neuropathic pain. To be noted: in vivo.
The test system of series [6] is rat model of nociceptive pain. To be noted: in vivo.
Series [7] deals with rodent models of acute and inflammatory pain. To be noted: in vivo; cited from earlier work.
For series [8] the following is noted: mouse, in vivo.
The test system of series [9] is mouse model of inflammatory pain (100% CFA). To be noted: in vivo.
In series [10] the test system is rat model of monoarthritis induced by 50% intraplantar CFA. To be noted: in vivo.
Series [11] in a line: in vivo. To be noted: mouse, sc.
The target of series [12] is hNav1.7 channel (Homo sapiens, UniProt Q15858, W1161R). Format: cell-based.

SMILES strings stand for the structures. Read-outs that look alike come from different tables or passages of the source.

Nav1.2, sequence (Q99250 whole entry, looked up): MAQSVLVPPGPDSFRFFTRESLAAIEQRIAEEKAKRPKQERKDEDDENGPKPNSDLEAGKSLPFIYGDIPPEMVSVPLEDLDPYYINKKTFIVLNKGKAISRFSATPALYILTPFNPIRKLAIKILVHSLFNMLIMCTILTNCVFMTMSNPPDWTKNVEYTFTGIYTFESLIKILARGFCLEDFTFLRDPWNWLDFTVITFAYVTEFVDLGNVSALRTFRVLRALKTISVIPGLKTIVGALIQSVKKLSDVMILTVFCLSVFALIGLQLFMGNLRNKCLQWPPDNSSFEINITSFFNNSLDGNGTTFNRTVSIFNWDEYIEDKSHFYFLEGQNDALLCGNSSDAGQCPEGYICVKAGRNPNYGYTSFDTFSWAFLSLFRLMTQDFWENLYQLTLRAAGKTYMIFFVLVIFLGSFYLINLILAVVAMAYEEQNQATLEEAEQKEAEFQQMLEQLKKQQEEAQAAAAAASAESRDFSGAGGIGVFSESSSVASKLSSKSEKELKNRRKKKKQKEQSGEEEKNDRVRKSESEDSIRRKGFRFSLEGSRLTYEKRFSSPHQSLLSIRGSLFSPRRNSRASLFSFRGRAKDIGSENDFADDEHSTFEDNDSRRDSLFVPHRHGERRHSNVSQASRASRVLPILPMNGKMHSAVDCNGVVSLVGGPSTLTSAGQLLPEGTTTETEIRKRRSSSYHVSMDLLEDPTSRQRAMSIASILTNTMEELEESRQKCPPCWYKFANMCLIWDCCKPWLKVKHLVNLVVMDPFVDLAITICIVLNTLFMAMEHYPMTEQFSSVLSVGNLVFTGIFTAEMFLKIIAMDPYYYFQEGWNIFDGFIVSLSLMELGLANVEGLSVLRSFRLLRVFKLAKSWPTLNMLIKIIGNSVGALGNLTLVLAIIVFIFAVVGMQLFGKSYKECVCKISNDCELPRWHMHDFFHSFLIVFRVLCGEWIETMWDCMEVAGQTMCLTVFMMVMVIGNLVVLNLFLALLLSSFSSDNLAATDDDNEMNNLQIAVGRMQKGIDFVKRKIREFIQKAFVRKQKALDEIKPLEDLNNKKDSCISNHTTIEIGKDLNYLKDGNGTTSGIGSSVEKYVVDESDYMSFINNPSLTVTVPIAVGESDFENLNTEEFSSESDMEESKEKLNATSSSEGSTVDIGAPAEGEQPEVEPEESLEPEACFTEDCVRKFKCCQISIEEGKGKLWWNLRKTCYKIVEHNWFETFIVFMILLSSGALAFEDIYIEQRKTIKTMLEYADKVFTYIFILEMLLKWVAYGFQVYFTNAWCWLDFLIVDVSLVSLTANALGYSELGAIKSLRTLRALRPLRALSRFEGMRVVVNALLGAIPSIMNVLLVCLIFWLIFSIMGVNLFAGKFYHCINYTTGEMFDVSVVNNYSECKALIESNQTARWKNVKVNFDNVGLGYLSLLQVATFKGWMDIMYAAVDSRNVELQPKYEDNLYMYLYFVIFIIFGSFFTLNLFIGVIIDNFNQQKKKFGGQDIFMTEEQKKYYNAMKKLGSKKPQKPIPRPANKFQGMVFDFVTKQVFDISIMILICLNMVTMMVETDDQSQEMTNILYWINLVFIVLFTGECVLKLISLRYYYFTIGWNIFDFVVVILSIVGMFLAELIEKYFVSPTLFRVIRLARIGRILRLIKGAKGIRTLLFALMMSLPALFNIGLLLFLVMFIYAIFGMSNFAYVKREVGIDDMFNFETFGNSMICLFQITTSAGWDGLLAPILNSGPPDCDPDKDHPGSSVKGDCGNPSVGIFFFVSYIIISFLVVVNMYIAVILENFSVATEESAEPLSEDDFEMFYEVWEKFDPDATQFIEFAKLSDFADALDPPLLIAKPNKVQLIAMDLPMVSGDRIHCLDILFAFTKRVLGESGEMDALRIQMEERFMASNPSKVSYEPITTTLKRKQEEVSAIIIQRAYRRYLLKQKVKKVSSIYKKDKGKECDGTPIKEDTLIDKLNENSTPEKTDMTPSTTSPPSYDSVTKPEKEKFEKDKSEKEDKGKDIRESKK
Nav1.7, sequence (Q15858 whole entry W1161R, looked up): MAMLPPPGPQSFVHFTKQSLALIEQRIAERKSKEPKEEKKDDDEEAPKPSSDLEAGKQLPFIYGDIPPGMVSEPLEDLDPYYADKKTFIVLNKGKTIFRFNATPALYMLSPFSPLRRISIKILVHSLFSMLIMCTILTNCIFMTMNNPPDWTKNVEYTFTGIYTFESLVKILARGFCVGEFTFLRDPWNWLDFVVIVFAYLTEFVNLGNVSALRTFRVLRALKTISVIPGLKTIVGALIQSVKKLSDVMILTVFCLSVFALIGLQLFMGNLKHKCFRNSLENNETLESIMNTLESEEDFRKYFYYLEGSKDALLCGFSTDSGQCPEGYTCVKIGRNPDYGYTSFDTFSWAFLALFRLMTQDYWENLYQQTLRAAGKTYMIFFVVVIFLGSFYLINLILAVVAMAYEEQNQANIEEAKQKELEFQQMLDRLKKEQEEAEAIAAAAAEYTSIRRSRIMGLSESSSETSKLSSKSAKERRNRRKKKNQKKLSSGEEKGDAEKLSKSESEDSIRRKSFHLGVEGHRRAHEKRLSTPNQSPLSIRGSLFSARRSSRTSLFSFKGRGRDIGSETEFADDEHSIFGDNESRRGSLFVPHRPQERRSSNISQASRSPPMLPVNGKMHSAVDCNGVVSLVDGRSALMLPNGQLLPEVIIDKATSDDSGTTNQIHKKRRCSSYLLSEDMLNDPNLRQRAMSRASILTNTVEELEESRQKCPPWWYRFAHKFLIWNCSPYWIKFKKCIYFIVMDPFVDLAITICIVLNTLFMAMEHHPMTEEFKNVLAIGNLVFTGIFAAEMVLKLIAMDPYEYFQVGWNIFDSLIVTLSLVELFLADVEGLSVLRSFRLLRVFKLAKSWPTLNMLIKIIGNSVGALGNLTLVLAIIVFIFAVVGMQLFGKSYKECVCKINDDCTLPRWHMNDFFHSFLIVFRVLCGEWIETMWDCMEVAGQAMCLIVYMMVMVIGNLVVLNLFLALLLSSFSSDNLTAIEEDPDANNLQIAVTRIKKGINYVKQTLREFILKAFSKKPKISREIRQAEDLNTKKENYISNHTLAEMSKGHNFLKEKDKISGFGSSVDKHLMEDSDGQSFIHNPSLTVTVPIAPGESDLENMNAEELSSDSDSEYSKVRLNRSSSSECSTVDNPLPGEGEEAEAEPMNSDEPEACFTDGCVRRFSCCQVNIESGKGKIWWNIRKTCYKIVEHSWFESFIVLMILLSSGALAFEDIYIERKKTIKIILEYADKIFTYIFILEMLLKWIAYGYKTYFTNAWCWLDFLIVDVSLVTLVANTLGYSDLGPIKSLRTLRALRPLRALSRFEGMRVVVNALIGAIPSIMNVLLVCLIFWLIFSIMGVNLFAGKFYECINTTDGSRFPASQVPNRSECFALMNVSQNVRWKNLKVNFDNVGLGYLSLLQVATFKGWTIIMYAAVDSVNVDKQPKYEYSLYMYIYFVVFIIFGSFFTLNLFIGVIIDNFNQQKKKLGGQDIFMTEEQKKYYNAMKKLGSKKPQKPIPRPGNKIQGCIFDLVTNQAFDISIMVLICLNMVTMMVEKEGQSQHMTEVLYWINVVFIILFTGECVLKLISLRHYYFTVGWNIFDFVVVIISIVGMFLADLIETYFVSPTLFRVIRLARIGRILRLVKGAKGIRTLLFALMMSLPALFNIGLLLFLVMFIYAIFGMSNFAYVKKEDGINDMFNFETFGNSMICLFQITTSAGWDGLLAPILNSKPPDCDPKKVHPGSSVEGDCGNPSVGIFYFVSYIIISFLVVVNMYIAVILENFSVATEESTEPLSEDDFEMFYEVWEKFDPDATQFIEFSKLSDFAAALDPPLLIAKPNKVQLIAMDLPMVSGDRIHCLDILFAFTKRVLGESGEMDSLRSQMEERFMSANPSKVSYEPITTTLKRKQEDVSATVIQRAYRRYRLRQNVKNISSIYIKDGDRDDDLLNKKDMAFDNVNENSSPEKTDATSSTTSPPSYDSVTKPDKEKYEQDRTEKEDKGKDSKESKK

Turning to `CC[C@H](C)[C@H](NC(=O)[C@H](CCC(N)=O)NC(=O)[C@H](Cc1ccc(O)cc1)NC(=O)[C@H](CCCCN)NC(=O)[C@@H]1CSSC[C@@H]2NC(=O)[C@H](CCC(N)=O)NC(=O)[C@H](CC(=O)O)NC(=O)[C@H](CC(N)=O)NC(=O)[C@H](CO)NC(=O)[C@@H]3CCCN3C(=O)[C@H](CC(N)=O)NC(=O)[C@@H]3CSSC[C@H](NC(=O)[C@H](C(C)C)NC(=O)[C@H](CC(C)C)NC(=O)[C@H](CCCCN)NC(=O)[C@H](CO)NC(=O)[C@H](CO)NC(=O)[C@H](CCCCN)NC(=O)[C@H](CSSC[C@H](NC(=O)[C@H](C)NC(=O)[C@@H]4CCCN4C(=O)CN)C(=O)N[C@@H](CC(C)C)C(=O)N[C@@H](CCC(=O)O)C(=O)N[C@@H]([C@@H](C)CC)C(=O)N[C@@H](Cc4ccccc4)C(=O)N[C@@H](CCCCN)C(=O)N[C@@H](C)C(=O)N3)NC2=O)C(=O)N[C@@H](CO)C(=O)N[C@@H](CCCNC(=N)N)C(=O)N[C@@H](CCCCN)C(=O)N[C@@H]([C@@H](C)O)C(=O)N[C@@H](CCCNC(=N)N)C(=O)N[C@@H](Cc2c[nH]c3ccccc23)C(=O)N1)C(=O)NCC(=O)N[C@@H](CCCCN)C(=O)O` [NV1D82 | 243], the IC50 turned out to be 50 nM in series [1] and 40 nM in series [2].

As for `CSCC[C@@H]1NC(=O)CNC(=O)[C@H](CCC(=O)O)NC(=O)[C@@H]2CSSC[C@H](NC(=O)[C@@H](N)Cc3ccc(O)cc3)C(=O)N[C@@H](CCC(N)=O)C(=O)N[C@@H](CCCCN)C(=O)N[C@@H](Cc3c[nH]c4ccccc34)C(=O)N[C@@H](CCSC)C(=O)N[C@@H](Cc3c[nH]c4ccccc34)C(=O)N[C@@H]([C@@H](C)O)C(=O)N[C@H]3CSSC[C@H](NC(=O)[C@H](C(C)C)NC1=O)C(=O)N[C@@H](CCCNC(=N)N)C(=O)N[C@@H](CC(C)C)C(=O)N[C@@H](Cc1c[nH]c4ccccc14)C(=O)N[C@H](C(=O)N[C@@H](CCCCN)C(=O)N[C@@H](CCCCN)C(=O)N[C@@H](CCCCN)C(=O)N[C@@H](CC(C)C)C(=O)N[C@@H](Cc1c[nH]c4ccccc14)C(=O)O)CSSC[C@H](NC(=O)[C@H](CCCCN)NC(=O)[C@H](CCCNC(=N)N)NC(=O)[C@H](CCC(=O)O)NC(=O)[C@H](CO)NC(=O)[C@H](CC(=O)O)NC3=O)C(=O)N2` [ProTx-II], in series [3], the motor impairment entry is “did not produce any obvious motor impairment”, the tactile threshold entry is reported as “significantly increased” and the thermal threshold entry is reported as “significantly increased”. Moreover, in [4], the “Behav Obs” value is “normal” and the tolerability result is “well tolerated”. Further, the “efficacy in tactile (Von Frey) pain assay” value in series [5] is “not efficacious”. The “AUC of gram thresholds (mean vehicle AUC subtracted), comparison between dose groups” value in series [6] is “significantly different except between the 0.3 and 3 nmole doses”. Further, in [6] (sc), the “paw pressure threshold vs vehicle-treated animals” value is “increased thresholds significantly” and the “paw pressure threshold, dose dependence” value is given as “dose-dependent increase”. Moreover, the “efficacy in rodent models of acute and inflammatory pain” value in series [7] is listed as “non-efficacious”. In addition, the “Est Cp” value in [8] is given as “BLOQ”. Moreover, the CFA-induced tactile allodynia result in series [9] was “profound anti-allodynic effect”. Besides, in series [10], the “tactile threshold vs vehicle injected animals” value is “significantly increased”. In series [11] (45.6 ug/day), this molecule registered a level at time molar at 48 h of 50 nM, a level at time molar at 120 h of 55 nM and a level at time molar at 168 h of 83 nM. In addition, the level at time molar at 72 h in series [11] (228 ug/day) is 224 nM.

As to `CC[C@H](C)[C@H](NC(=O)[C@H](CCC(N)=O)NC(=O)[C@H](Cc1ccc(O)cc1)NC(=O)[C@H](CCCCN)NC(=O)[C@@H]1CSSC[C@@H]2NC(=O)[C@H](CCC(N)=O)NC(=O)[C@H](CC(=O)O)NC(=O)[C@H](CC(N)=O)NC(=O)[C@H](CO)NC(=O)[C@@H]3CCCN3C(=O)[C@H](CC(N)=O)NC(=O)[C@@H]3CSSC[C@H](NC(=O)[C@H](C(C)C)NC(=O)[C@H](CC(C)C)NC(=O)[C@H](CCCCN)NC(=O)[C@H](CO)NC(=O)[C@H](CO)NC(=O)[C@H](CCCCN)NC(=O)[C@H](CSSC[C@H](NC(=O)[C@H](CCC(=O)O)NC(=O)[C@@H]4CCCN4C(=O)CN)C(=O)N[C@@H](CC(C)C)C(=O)N[C@@H](CCC(=O)O)C(=O)N[C@@H]([C@@H](C)CC)C(=O)N[C@@H](Cc4ccccc4)C(=O)N[C@@H](CCCCN)C(=O)N[C@@H](C)C(=O)N3)NC2=O)C(=O)N[C@@H](CO)C(=O)N[C@@H](CCCNC(=N)N)C(=O)N[C@@H](CCCCN)C(=O)N[C@@H]([C@@H](C)O)C(=O)N[C@@H](CCCNC(=N)N)C(=O)N[C@@H](Cc2c[nH]c3ccccc23)C(=O)N1)C(=O)NCC(=O)N[C@@H](CCCCN)C(=O)O` [Recombinant Huwentoxin-IV], the “ratio of IC50 for Nav1.2 to IC50 for Nav1.7” value in series [12] is on record as “about 2.143”.

With `NCC1(CC(=O)O)CCCCC1` [gabapentin], the CFA-induced tactile allodynia entry in series [9] (po, 150 mg/kg) is on record as “reduced tactile allodynia albeit to a lesser extent than ProTx-II”.

The IC50 is the midpoint of a concentration-inhibition curve. High values mean lower potency, low ones higher potency.
